In PubChem BioAssay AID504640 (Southern Research Specialized Biocontainment Screening …, 2011):
Active and inactive are the calls of the source. No rule for the calls is given here. Where a SMILES comes first, the peptide text is derived from it. The star is where a group is joined. Cbz = O=C(OCc1ccccc1)*

Test system: not listed separately
Assay: cytotoxicity in THP-1 cells, cytotoxicity control, cell-based (AID 504640)
Conditions: THP-1 cell viability, cytotoxicity; at 100 µM (top of the series)
In the case of `CCOC(=O)COn1c2c(c3c4no[n+]([O-])c4ccc31)CCCC2`, the viability is reported as 92.6% (inactive).
For `CCOC(=O)COc1ccc(/C=C2\NC(=S)N(CC)C2=O)cc1`, the viability was 89.2% (inactive).
For `COC(=O)C(C)Oc1ccc(-c2nccc(-c3ccccn3)n2)cc1` (configuration not stated), the viability was 91% (inactive).
In the case of `COc1cc(NC(=O)C/C(C)=N/NC(=O)c2ccccn2)c(OC)cc1Cl`, the viability is reported as 101% (inactive).
In the case of `CCOC1OC(=O)C(Cl)=C1Nc1ccccc1C` (configuration not stated), the viability is reported as 81.1% (inactive).
With `O=C(CSc1nc2ccccc2c(=O)[nH]1)NC1CCCCC1` the viability was 92.5% (inactive).
In the case of `Cc1ccc(NC(=O)C2C3/C=C\CCCCC32)cc1C` (configuration not stated), the viability is reported as 86.3% (inactive).
For `COC(=O)c1ccc(CNc2c(N3CCCC3)c(=O)c2=O)cc1`, the viability was 80.7% (inactive).
In the case of `Cc1nc(SCC(=O)NC2CCCCC2)[nH]c(=O)c1C`, the viability is reported as 106% (inactive).
With `COC(=O)CCc1nc2c(C#N)c(-c3ccc(Cl)cc3)ccn2n1` the viability was 108% (inactive).
For `COC(=O)C1CC(=O)N(c2ccc(OCc3ccccc3Cl)cc2)C1` (configuration not stated), the viability was 86.1% (inactive).

Test system: THP-1 cell viability, cytotoxicity
Assay: as above
Conditions: not given
In the case of `CC(C)NC(=O)c1sc(=S)n2c1[nH]c(=O)c1ccc(C(=O)NCCc3ccc(Cl)cc3)cc12`, the CC50 is reported as 52.8 µM.
Work on `O=C(NCC(c1cccs1)N1CCOCC1)c1cc([N+](=O)[O-])cc([N+](=O)[O-])c1` (configuration not stated) yielded a CC50 of 58.4 µM.
`Cc1cccc(/C=C/C(=O)c2ccc([N+](=O)[O-])o2)c1` showed a CC50 of 6.64 µM.
`O=C(/C=C/c1ccccc1)N1CCN(CCN2C(=O)c3cccc4cccc(c34)C2=O)CC1` showed a CC50 of 41.2 µM.
Work on `Cc1ccc(C(=O)N/N=C(/CC(=O)c2cccs2)C(F)(F)F)cc1` yielded a CC50 of 40.4 µM.
With `COC(=O)C(Nc1nc(SCC(=O)NC2CCCCC2)nc2ccccc12)c1ccccc1` (configuration not stated) the CC50 was 50.4 µM.
In the case of `CCOC(=O)CNC(=O)[C@H](Cc1ccccc1)NC(=O)OCc1ccccc1` (Cbz-Phe-Gly-OEt), the CC50 is reported as 43.1 µM.
`CNc1nc(SCc2ccccc2Cl)nc2c1CCCC2` gave a CC50 of 28 µM.
Compound `Cc1cc(Br)ccc1NC(=O)c1cnc(N2CCN(c3ccccn3)CC2)c2ccccc12` has a CC50 of 35.6 µM.
`Cc1ccc2c(c1)c(C1=c3ccccc3=NC1=O)c(O)n2C` gave a CC50 of 12.6 µM.
Work on `CCC(C)Nc1ccc(NC(C)CC)cc1` (configuration not stated) yielded a CC50 of 3.31 µM.
With `COC(=O)c1cc(=O)n(-c2ccc(F)cc2)c(=Nc2ccc(F)cc2)s1` the CC50 was 17.6 µM.
In the case of `Oc1ccccc1/C=N/Nc1ccnc(SCc2ccccc2)n1`, the CC50 is reported as 44.9 µM.
With `CCOC(=O)c1ccc(NC(=O)Cn2ncc(Cl)c(Cl)c2=O)cc1` the CC50 was 0.88 µM.
For `S=c1nc[nH]c2nc[nH]c12`, the CC50 was 0.56 µM.
Work on `Cc1cccc(-c2oc3ccc(-c4ccc5c(c4)OCO5)cc3c2C#Cc2cncn2C)c1` yielded a CC50 of 35.9 µM.
Work on `CCOC(=O)C(C)Sc1ncnc2c1nnn2-c1ccc(F)cc1` (configuration not stated) yielded a CC50 of 38.7 µM.
Work on `Cc1nn2c(NCc3ccccn3)cc(C(C)C)nc2c1-c1ccccc1` yielded a CC50 of 2.88 µM.
In the case of `c1ccc(/N=C2\N=C(Nc3ccccn3)c3ccccc32)nc1`, the CC50 is reported as less than 0.2 µM.
Work on `CC[N+](C)(CC)CCCCOc1ccc2c(c1)C(=O)c1cc(OCCCC[N+](C)(CC)CC)ccc1-2` yielded a CC50 of 23.1 µM.
`Cc1ccc2ccc3ccc(C)nc3c2n1` gave a CC50 of less than 0.2 µM.
